How the values were obtained:
SK-OV-3 = assay: Cytotoxicity test to cancer cell lines (SRB method), SK-OV-3; type: cell-based; settings: Homo sapiens, SK-OV-3, 48 h, read-out: Cytotoxicity ED50 SK-OV-3
[1] = Body weight change of NCI-H460 xenografted nude mice; type: in vivo, BALB/c nude mouse
HCT-15 = assay: Cytotoxicity test to cancer cell lines (SRB method), HCT-15; settings: Homo sapiens, HCT-15, 48 h, read-out: Cytotoxicity ED50 HCT15
Experimental: (§1) Cytotoxicity to A549 (Korea Research Institute of Chemical Technology), SK-OV-3 (Korea Research Institute of Chemical Technology), SK-MEL-2 (Korea Research Institute of Chemical Technology), HCT-15 (Korea Research Institute of Chemical Technology) and MCF7 (Korean Cell Line Bank, Seoul National University School of medicine) cells was measured by Sulforhodamin-B (SRB) method (1989, National Cancer Institute (NCI)) which was developed for the measurement of in vitro anticancer activity of a drug. Cells were separated using 0.25% trypsin-EDTA solution, leading to the preparation of a cell suspension by 5×10^318 2×10^4 cells/well. Then, the suspension was distributed into a 96 well plate by 100 μl/well, which was cultured in a 37° C., 5% CO2 incubator for 24 hours. Compounds prepared in examples of the present invention were used as a sample. Precisely, the compound was dissolved in dimethylsulfoxide and diluted with RPMI 1640 medium before being used as a sample. The final concentration of the sample used varied ranging 1 μM˜0.00001 μM. The medium was removed from the 96 well plate and then diluted sample solution was added by 100 μl/well, followed by further culture in a 37° C., 5% CO2 incubator for 48 hours. Tz (time zero) plate was collected from the point of adding the sample. Upon completing the culture, the medium was removed from each well along with Tz plate, then 10% trichloroacetic acid (TCA) was added by 100 μl/well. The plate was left at 4° C. for 1 hour to let cells be fixed on the floor of the plate. After cells were fixed completely, the plate was washed with water 5-6 times to remove the remaining trichloroacetic acid solution completely and moisture was completely dried at room temperature. 0.4% Sulforhodamine-B was dissolved in 1% acetic acid solution to prepare a staining solution. Cells were stained for 30 minutes with a dye added by 100 μl to each well of the completely dried plate. Then, the plate was washed with 1% acetic acid solution 5-6 times to remove sulforhodamine-B remained uncombined with cells. Then, the plate was dried at room temperature. 10 mM Tris solution was added by 100 μ/well thereto to dissolve the dye, and optical density (OD) was measured at 520 nm with a micro plate reader.
(§2) ED50 (concentration that inhibits cancer cell growth 50%, 5.0% effective dose, nM/ml) of the sample to cancer cell was calculated as follows. OD value at the point of beginning the culture with the sample was determined as Tz (time zero) value. OD value of a well to be cultured without the sample was determined as a control value (C). OD value of a well pretreated with the sample was determined as experimental value (T). After calculating Tz, C and T, cytotoxicity of the sample was measured by the below <Mathematical Formula 1>. T≦Tz, (T−Tz)/(C−Tz)×100 T>Tz, (T−Tz)/Tz×10,0 <Mathematical Formula 1>
(§3) ED50, the concentration that can inhibit cancer cell growth by 50%, was calculated by using a regression analysis of lotus program based on the degree of cytotoxicity obtained by the <Mathematical Formula 1>.

[2] = system: human lung cancer cell line NCI-H460; assay: Inhibiting effect on tumor growth, NCI-H460 xenografted nude mice
Experimental: Samples for the experiment were stored in a refrigerator all the time. […] The prepared sample is subject to be precipitated, so that tip sonication was performed right before the administration to disperse it well.
7 week-old female S.P.F. BALB/c nude mice, provided by Charles River Co., Japan, were used as test animals. The test animals were adapted in a Hepa-filter room over a week before the test. The temperature was 21±2° C., humidity was 55±5% and 12-hour light and dark cycle was automatically repeated in that lab. Solid feed (Cheiluedang) was sterilized by radioactive rays and drinking water was also sterilized by autoclave. Feed and water were taken by the animal freely. Cancer cell line used in this experiment was NCI-H460 (human lung tumor cell line) provided by Korea Research Institute of Bioscience and Biotechnology.
The tumor cell line, stored in liquid nitrogen, was thawed and cultured in a 37° C., 5% CO2 incubator for a required time. Upon completing the culture, all the cells were recovered and cell concentration of the culture fluid was adjusted using PBS to 3×10^7 cells/ml. The adjusted cell culture solution was injected hypodermically into armpit between right shoulder girdle and chest wall by 0.3 ml per mouse. From the next day of grafting, NCI-H460 xenografted nude mice were administered intraperitoneal everyday with the sample solution by 0.2 ml/20 g of weight, once a day.
After the grafting of tumor cells, the volume of a tumor in each individual was measured in three dimensions by using a vernier caliper, which was represented in the below <Mathematical Formula 2>. Tumor volume=(length×width×height)/2 <Mathematical Formula 2>
Body weight changes of animal were measured three times a week. Each xenografted nude mouse was sacrificed to separate a tumor, which was then weighed.

SK-MEL-2 = assay: Cytotoxicity test to cancer cell lines (SRB method), SK-MEL-2; type: cell-based; settings: Homo sapiens, SK-MEL-2, 48 h, read-out: Cytotoxicity ED50 SK-MEL-2
A549 = assay: Cytotoxicity test to cancer cell lines (SRB method), A549; settings: Homo sapiens, A549, 48 h, read-out: Cytotoxicity ED50 A549
MCF7 = assay: Cytotoxicity test to cancer cell lines (SRB method), MCF7; settings: read-out: Cytotoxicity ED50 MCF-7, MCF-7, 48 hours
Experimental: as §1, §2, §3

[3] = 2 mg/kg intraperitoneal once a day
[4] = 10 mg/kg intraperitoneal once a day
[5] = 10 mg/kg intraperitoneal once a day, Day 14

SMILES | EC50 (SK-OV-3) [nM] | EC50 (HCT-15) [nM] | EC50 (SK-MEL-2) [nM] | EC50 (A549) [nM] | EC50 (MCF7) [nM] | also measured
COc1cccc2c1C(=O)c1c(O)c3c(c(O)c1C2=O)C[C@@](O)(C(=O)CO)C[C@@H]3O[C@H]1C[C@H](N)[C@H](O)[C@H](C)O1 [Doxorubicin, reference compound] | 47 | 25 | 16 | 13 | 50 | Body weight Change Day 1 [1, 3]: 100.0 ± 0.0%; Body weight Change Day 3 [1, 3]: 105.0 ± 4.1%; Body weight Change Day 7 [1, 3]: 103.9 ± 5.5%; Body weight Change Day 9 [1, 3]: 100.5 ± 4.6 %; Body weight Change Day 11 [1, 3]: 96.4 ± 3.5 %; Body weight Change Day 14 [1, 3]: 85.1 ± 1.8 %; Tumor Weight Day 14 ([2]; 2 mg/kg intraperitoneal once a day, Day 14): 534.1 ± 87.9 mg
CCOc1cc2c(c(OC)c1OC)-c1ccc(SC)c(=O)cc1[C@@H](NC(=O)c1cccc(CO[N+](=O)[O-])c1F)CC2 [Example 8, N-[(7S)-3-ethoxy-1,2-dimethoxy-10-methylsulfanyl-9-oxo-5,6,7,9-tetrahydro-benzo[a]heptalen-7-yl]-2-fluoro-3-nitrooxymethyl-benzamide] | 0.04 | 0.03 | 0.01 | 0.02 | 0.01 | Body weight Change Day 1 [1, 4]: 100.0 ± 0.0%; Body weight Change Day 3 [1, 4]: 103.5 ± 2.2%; Body weight Change Day 7 [1, 4]: 99.8 ± 4.3 %; Body weight Change Day 9 [1, 4]: 92.3 ± 4.1 %; Body weight Change Day 11 [1, 4]: 89.3 ± 3.7 %; Body weight Change Day 14 [1, 4]: 89.4 ± 5.3 %; decrease of the weight of the mouse ([1]; comparing to solvent only or positive control): about 10%; inhibition rate of the tumor volume ([2]; 10 mg/kg): 85%; Tumor volume Day 0 ([2]; 10 mg/kg intraperitoneal once a day, Day 0): 0.0 ± 0.0; Tumor volume Day 4 ([2]; 10 mg/kg intraperitoneal once a day, Day 4): 18.0 ± 3.7; Tumor volume Day 7 ([2]; 10 mg/kg intraperitoneal once a day, Day 7): 25.2 ± 12.8; Tumor volume Day 9 ([2]; 10 mg/kg intraperitoneal once a day, Day 9): 29.6 ± 13.8; Tumor volume Day 11 ([2]; 10 mg/kg intraperitoneal once a day, Day 11): 35.2 ± 14.0; Tumor Weight Day 14 [2, 5]: 143.4 ± 57.8 mg; Tumor volume Day 14 [2, 5]: 44.5 ± 15.0; size and weight of a tumor (in words) ([2]; comparing to solvent only (V.C-1, V.C-2) or positive control (taxol, adriamycin)): remarkably decreased
COc1cc2c(c(OC)c1OC)-c1ccc(SC)c(=O)cc1[C@@H](NC(=O)c1cc(CO[N+](=O)[O-])cs1)CC2 [Example 21, 4-nitrooxymethyl-thiophene-2-carboxylic acid [(7S)-1,2,3-trimethoxy-10-methylsulfanyl-9-oxo-5,6,7,9-tetrahydro-benzo[a]heptalen-7-yl]-amide] | 0.59 | 0.13 | 0.29 | 0.97 | 0.1 | –
COc1cc2c(c(OC)c1OC)-c1ccc(SC)c(=O)cc1[C@@H](NC(=O)c1sccc1CO[N+](=O)[O-])CC2 [Example 22, 3-nitrooxymethyl-thiophene-2-carboxylic acid [(7S)-1,2,3-trimethoxy-10-methylsulfanyl-9-oxo-5,6,7,9-tetrahydro-benzo[a]heptalen-7-yl]-amide] | 1.41 | 0.95 | 0.87 | 1.11 | 0.21 | –
COc1cc2c(c(OC)c1OC)-c1ccc(SC)c(=O)cc1[C@@H](NC(=O)Cc1cccc(CO[N+](=O)[O-])c1)CC2 [Example 23, 2-(3-nitrooxymethyl-phenyl)-N-[(7S)-1,2,3-trimethoxy-10-methylsulfanyl-9-oxo-5,6,7,9-tetrahydro-benzo[a]heptalen-7-yl]-acetamide] | 5.6 | 3.4 | 3.5 | 5.4 | 3.3 | –
COc1cc2c(c(OC)c1OC)-c1ccc(SC)c(=O)cc1[C@@H](NC(=O)c1cccc(COC(=O)CCCO[N+](=O)[O-])c1)CC2 [Example 34, 4-nitrooxybutyric acid-3-[(7S)-1,2,3-trimethoxy-10-methylsulfanyl-9-oxo-5,6,7,9-tetrahydro-benzo[a]heptalen-7-yl-carbamoyl]-benzylester] | 0.01 | 0.01 | 0.01 | 0.06 | 0.01 | –
COc1cc2c(c(OC)c1OC)-c1ccc(SC)c(=O)cc1[C@@H](NC(=O)c1ccccc1SN=O)CC2 [Example 35, 2-nitrosothio-N-[(7S)-1,2,3-trimethoxy-10-methylsulfanyl-9-oxo-5,6,7,9-tetrahydro-benzo[a]heptalen-7-yl]-benzamide] | > 50 | 20.9 | 41.9 | > 50 | 24.7 | –
COc1cc2c(c(OC)c1OC)-c1ccc(SC)c(=O)cc1[C@@H](NC(=O)c1cc(F)cc(CON=O)c1)CC2 [Example 37, 3-fluoro-5-nitrosooxymethyl-N-[(7S)-1,2,3-trimethoxy-10-methylsulfanyl-9-oxo-5,6,7,9-tetrahydro-benzo[a]heptalen-7-yl]-benzamide] | 38.8 | 7.5 | 9.4 | > 50 | 10.3 | –
COc1cc2c(c(OC)c1OC)-c1ccc(SC)c(=O)cc1[C@@H](NC(=O)c1cc(F)cc(CSN=O)c1)CC2 [Example 39, 3-fluoro-5-nitrosothiomethyl-N-[(7S)-1,2,3-trimethoxy-10-methylsulfanyl-9-oxo-5,6,7,9-tetrahydro-benzo[a]heptalen-7-yl]-benzamide] | 28.2 | 9.9 | > 50 | 40.7 | 5 | –
COc1cc2c(c(OC)c1OC)-c1ccc(OC)c(=O)cc1[C@@H](NC(=O)c1cc(F)cc(CO[N+](=O)[O-])c1)CC2 [Example 40, 3-fluoro-5-nitrooxymethyl-N-[(7S)-1,2,3,10-tetramethoxy-9-oxo-5,6,7,9-tetrahydro-benzo[a]heptalen-7-yl]-benzamide] | 45.6 | 24.3 | 60.7 | 43.9 | 10.5 | –
COc1cc2c(c(OC)c1OC)-c1ccc(SC)c(=O)cc1[C@@H](N(C)C(=O)c1cccc(CO[N+](=O)[O-])c1)CC2 [Example 41, 3-nitrooxymethyl-N-methyl-N-[(7S)-1,2,3-trimethoxy-10-methylsulfanyl-9-oxo-5,6,7,9-tetrahydro-benzo[a]heptalen-7-yl]-benzamide] | > 50 | 36.4 | > 50 | > 50 | 47.3 | –
COc1cc2c(c(OC)c1OC)-c1ccc(SC)c(=O)cc1[C@@H](N(C)C(=O)c1cc(F)cc(CO[N+](=O)[O-])c1)CC2 [Example 42, 3-fluoro-N-methyl-5-nitrooxymethyl-N-[(7S)-1,2,3-trimethoxy-10-methylsulfany-9-oxo-5,6,7,9-tetrahydro-benzo[a]heptalen-7-yl]-benzamide] | > 50 | > 50 | > 50 | > 50 | > 50 | –

Source: patent US20070179143A1 (priority 2003, published 2007)
